Experimental data reported in patent US20170168041A1, “Polymers And Oligomers With Aggregation-Induced Emission Characteristics For Imaging And Image-Guided Therapy” (National University of Singapore, priority 2014, published 2017).

Tests used:
[1] = 1O2 quantum yield measurement with ABDA, Rose Bengal standard; format: physicochemical; settings: for 1O2 quantum yield: in water, white light, relative to Rose Bengal; for degradation rate of ABDA: white light irradiation, ABDA absorbance at 378 nm
Procedure: The ^1O2-sensitive indicator, 9,10-anthracenediyl-bis(methylene) dimalonic acid (ABDA), was used as the ^1O2-trapping agent, and Rose Bengal (RB) was used as the standard photosensitizer. In these experiments, 10 μL of ABDA solution ([…]) was added to 1 mL of sample solution, and white light (400-800 nm) with a power density of 0.25 W cm^−2 was employed as the irradiation source. The absorbance of ABDA at 378 nm was recorded at different irradiation time to obtain the decay rate of the photosensitizing process. The ^1O2 quantum yield of the PS in water (ΦPS) was calculated using the following formula: […]
Where KPS and KRB are the decomposition rate constants of ABDA by the PSs and RB, respectively. APS and ARB represent the light absorbed by the PSs and RB, respectively, which are determined by integration of the optical absorption bands in the wavelength range 400-800 nm. ΦRB is the ^1O2 quantum yield of RB, and ΦRB=0.75 in water.
To assess capabilities of PPDC, TPPDC, and TPDC in ^1O2 generation, a commercial ^1O2 probe ABDA was used as an indicator and Rose Bengal (RB) was used as the standard photosensitizer (^1O2 quantum yield ORB=0.75 in water). In the presence of PSs or RB under irradiation with white light, the absorbance of the ABDA solution at 378 nm, decreases with prolonged irradiation time, indicating the degradation of ABDA by ^1O2 generated by PSs. […] Thus, the ^1O2 quantum yield of PPDC, TPPDC and TPDC was calculated to be 0.89, 0.32 and 0.28, respectively. These findings agree well with the prediction based on eq. (1).

[2] = in water; cited from earlier work
[3] = tested on: MCF-7 cells; test: MTT anti-proliferative assay; format: cell-based; settings: in dark or with light irradiation
Procedure: (§1) Subsequently, the anti-proliferative properties of TPECB-Pt-D5-cRGD towards MDA-MB-231 cells, U87-MG cells, MCF-7 cells and 293T cells were evaluated by MTT assays. The MDA-MB-231 cells are cisplatin resistant while U87-MG cells are cisplatin-sensitive. […] It should be noted that the cytotoxicity of cisplatin to both cells was not affected by the light irradiation.

[4] = tested on: 293T cells; test: MTT anti-proliferative assay; format: cell-based; settings: in dark or with light irradiation
Procedure: as §1

[5] = ROS generation of AIE residue of prodrug, ABDA absorbance; format: physicochemical; settings: 12 min light irradiation, 0.25 W cm-2
Source text: The ROS generation of the AIE residue was studied by measuring the absorption spectra of the mixture of TPECB-Pt-D5-cRGD and 9,10-anthracenediyl-bis(methylene)dimalonic acid (ABDA) in DMSO/PBS (v/v=1/199) upon light irradiation. It should be noted that the absorbance of TPECB-Pt-D5-cRGD is low and will not disturb the absorbance change of ABDA. As depicted in FIG. 23D, the absorption peaks at 358 nm, 378 nm and 400 nm attributed to the anthracene moiety in ABDA decreased gradually upon light irradiation. This is due to the fact that ABDA can efficiently trap ROS by fast reaction with the anthracene moiety.

[6] = tested on: MDA-MB-231, MCF-7 and 293T cells; test: Annexin V-FITC/PI apoptosis staining; format: cell-based; settings: 6 h incubation; only MDA-MB-231 strong apoptotic fluorescence, MCF-7 and 293T negligible
Procedure: The toxicity of cRGD-TPE-Pt-DOX to different cells was also studied using MDA-MB-231, MCF-7 and 293T cells as examples. After incubation with cRGD-TPE-Pt-DOX for 6 h, the cells were stained with Annexin V-FITC/Propidium Iodide (PI), which are commonly used fluorescent probes to distinguish viable cells from apoptosis ones. […] This should be due to the integrin mediated endocytosis, which leads to selective cellular uptake of the prodrug cRGD-TPE-Pt-DOX.

[7] = tested on: MDA-MB-231 cells; test: Combination index (C.I.) analysis from dose-effect profiles; format: cell-based; settings: drug effect levels from 75% to 25%
Procedure: To confirm the drug synergy in cRGD-TPE-Pt-DOX, the combination index (C.I.) was calculated. The C.I. derived from the dose-effect profiles was plotted against drug effect level, which provided quantitative information of the combination drug effect, where C.I. values lower than, equal to, or higher than 1 denote synergism, additivity, or antagonism, respectively.
The combination therapy of cisplatin and DOX towards MDA-MB-231 cells was evaluated by the combination index (C.I.) analysis. The C.I. was calculated as follows: C.I.=D1/Df1+D2/Df2+D1D2/Df1Df2. Where. Df1 is the dose of Drug-1 required to produce x percent effect alone and D1 is the dose of Drug-1 required to produce the same x percent effect in combination with Drug-2; similarly, Df2 is the dose of Drug-2 required to produce x percent effect alone and D2 is the dose of Drug-2 required to produce the same x percent effect in combination with Drug-1. Theoretically, C.I. is the ratio of the combination dose to the sum of the single-drug doses at an isoeffective level. Consequently, C.I. values <1 indicate synergism, values >1 show antagonism, and values=1 indicate additive effects.

[8] = tested on: U87-MG cells; test: MTT anti-proliferative assay; format: cell-based; settings: not affected by light irradiation
Procedure: as §1

In the case of `COc1ccc(C(=C(c2ccccc2)c2ccc(-c3ccc(C(C)=C(C#N)C#N)cc3)cc2)c2ccc(OC)cc2)cc1` [PPDC], the 1O2 quantum yield [1] is reported as 0.89 and the “degradation rate of ABDA” value [1] is reported as 0.0032.

In the case of `O=C([O-])c1c(Cl)c(Cl)c(Cl)c(Cl)c1-c1c2cc(I)c(=O)c(I)c-2oc2c(I)c([O-])c(I)cc12.[Na+].[Na+]` [Rose Bengal], the “1O2 quantum yield of standard” value [2] is given as 0.75.

For `COc1ccc(C(=C(c2ccccc2)c2ccc(C(C)=C(C#N)C#N)cc2)c2ccc(OC)cc2)cc1` [TPDC], the 1O2 quantum yield [1] was 0.28 and the “degradation rate of ABDA” value [1] was 0.0013.

For `COc1ccc(C(=C(c2ccccc2)c2ccc(C(/C=C/c3ccc(OCCCNC(=O)CCC(=O)[O][Pt-2]([NH3+])([NH3+])([Cl])([Cl])[O]C(=O)CCC(=O)N[C@@H](CC(=O)O)C(=O)N[C@@H](CC(=O)O)C(=O)N[C@@H](CC(=O)O)C(=O)N[C@@H](CC(=O)O)C(=O)N[C@@H](CC(=O)O)C(=O)NCCCC[C@@H]4NC(=O)[C@@H](Cc5ccccc5)NC(=O)[C@H](CC(=O)O)NC(=O)CNC(=O)[C@H](CCCNC(=N)N)NC4=O)cc3)=C(C#N)C#N)cc2)c2ccc(OC)cc2)cc1` [TPECB-Pt-D5-cRGD], the cytotoxicity [3] was “minimum cytotoxicity”, the cytotoxicity [4] was “minimum cytotoxicity” and the “ABDA absorption at 400 nm, % of original value” [5] was 24.1%.

With `COc1ccc(C(=C(c2ccccc2)c2ccc(C(=C(C#N)C#N)c3ccccc3)cc2)c2ccc(OC)cc2)cc1` [TPPDC] the 1O2 quantum yield [1] was 0.32 and the “degradation rate of ABDA” value [1] was 0.0018.

For `COc1cccc2c1C(=O)c1c(O)c3c(c(O)c1C2=O)C(OC1CC(NC(=O)CCC(=O)[O][Pt]([NH2])([NH2])([Cl])([Cl])[O]C(=O)CCC(=O)NCc2cn(Cc4ccc(/C(=C(\c5ccccc5)c5ccc(Cn6cc(C[C@@H]7NC(=O)[C@@H](Cc8ccccc8)NC(=O)[C@H](CC(=O)O)NC(=O)CNC(=O)[C@H](CCCNC(=N)N)NC7=O)nn6)cc5)c5ccccc5)cc4)nn2)C(O)C(C)O1)CC(O)(C(=O)CO)C3` (stereo partly shown) [cRGD-TPE-Pt-DOX], the selective apoptosis [6] was “selectively kill integrin overexpressed cancer cells” and the “combination index (C.I.) result” value [7] was “synergistic effect”.

Work on `N.N.[Cl][Pt][Cl]` [cisplatin] yielded an IC50 [8] of 5.4 µM.
